Values after ≈ are worked out from the molar mass of the structure shown.
How the values were obtained:
[1] = system: mouse peripheral blood; assay: Mouse peripheral blood micronucleus test; format: in vivo
[2] = system: S. flexneli, 2A 5503; assay: Antibacterial activity (MIC), standard method of the Japan Society of Chemotherapy; format: cell-based; conditions: read-out: Antibacterial activity (minimum inhibitory concentration)
Procedure: (§1) Examples of the present invention are given below by way of illustration and not by way of limitation. The antibacterial activity of each compound of interest was measured in accordance with the standard method specified by the Japan Society of Chemotherapy, with the results shown in Table 1 as MIC values (μg/ml).

[3] = system: S. aureus, 870307; assay: as above; format: cell-based; conditions: Staphylococcus aureus, read-out: Antibacterial activity (minimum inhibitory concentration)
Procedure: as §1

[4] = system: Ps. aeruginosa, 32121; assay: as above; format: cell-based; conditions: Pseudomonas aeruginosa, read-out: Antibacterial activity (minimum inhibitory concentration)
Procedure: as §1

[5] = system: S. epidermidis, 56500; assay: as above; format: cell-based; conditions: Staphylococcus epidermidis, read-out: Antibacterial activity (minimum inhibitory concentration)
Procedure: as §1

[6] = system: Ser. marcescens, 10100; assay: as above; format: cell-based; conditions: Serratia marcescens, read-out: Antibacterial activity (minimum inhibitory concentration)
Procedure: as §1

[7] = system: Str. faecalis, ATCC-19433; assay: as above; format: cell-based; conditions: Enterococcus faecalis, ATCC19433, read-out: Antibacterial activity (minimum inhibitory concentration)
Procedure: as §1

[8] = system: Ps. aeruginosa, 32104; assay: as above; format: cell-based; conditions: Pseudomonas aeruginosa, read-out: Antibacterial activity (minimum inhibitory concentration)
Procedure: as §1

[9] = system: S. aureus, 209P; assay: as above; format: cell-based; conditions: Staphylococcus aureus, read-out: Antibacterial activity (minimum inhibitory concentration)
Procedure: as §1

[10] = system: Str. pyogenes, G-36; assay: as above; format: cell-based; conditions: Streptococcus pyogenes, G36, read-out: Antibacterial activity (minimum inhibitory concentration)
Procedure: as §1

[11] = system: Pr. vulgaris, 08601; assay: as above; format: cell-based; conditions: Proteus vulgaris, read-out: Antibacterial activity (minimum inhibitory concentration)
Procedure: as §1

[12] = system: Pr. mirabilis, IFO- 3849; assay: as above; format: cell-based; conditions: Proteus mirabilis, IFO3849, read-out: Antibacterial activity (minimum inhibitory concentration)
Procedure: as §1

[13] = system: X. maltophilia, IID 1275; assay: as above; format: cell-based; conditions: Stenotrophomonas maltophilia, IID1275, read-out: Antibacterial activity (minimum inhibitory concentration)
Procedure: as §1

[14] = system: E. coli, NIHJ; assay: as above; format: cell-based; conditions: Escherichia coli, read-out: Antibacterial activity (minimum inhibitory concentration)
Procedure: as §1

## COc1c(N2C[C@@H](N)[C@@H](C)C2)c(F)cc2c(=O)c(C(=O)O)cn(C3CC3)c12 [formula (VI)]
[1]
  micronucleus test (micronucleus inducing action): positive

## COc1c(N2C[C@H](CF)[C@H](N)C2)c(F)cc2c(=O)c(C(=O)O)cn([C@@H]3C[C@@H]3F)c12 [Ex. 1, 7-[3-(S)-Amino-4-(S)-fluoromethyl-1-pyrrolidinyl]-6-fluoro-1-[2-(S)-fluoro-1-(R)-cyclopropyl]-1,4-dihydro-8-methoxy-4-oxoquinoline-3-carboxylic acid]
[2]
  MIC: 6 ng/mL (≈ 0.0146 µM)
[3]
  MIC: 0.2 µg/mL (≈ 0.486 µM)
[4]
  MIC: 0.05 µg/mL (≈ 0.122 µM)
[5]
  MIC: 0.05 µg/mL (≈ 0.122 µM)
[6]
  MIC: 0.05 µg/mL (≈ 0.122 µM)
[7]
  MIC: 0.1 µg/mL (≈ 0.243 µM)
[8]
  MIC: 0.2 µg/mL (≈ 0.486 µM)
[9]
  MIC: 0.013 µg/mL (≈ 0.0316 µM)
[10]
  MIC: 0.1 µg/mL (≈ 0.243 µM)
[11]
  MIC: 0.013 µg/mL (≈ 0.0316 µM)
[12]
  MIC: 0.025 µg/mL (≈ 0.0608 µM)
[13]
  MIC: 0.2 µg/mL (≈ 0.486 µM)
[14]
  MIC: ≤ 3 ng/mL

## COc1c(N2C[C@H](CF)[C@H](N)C2)c(F)cc2c(=O)c(C(=O)O)cn(C3CC3)c12 [Ex. 2, 7-[3-(S)-Amino-4-(S)-fluoromethyl-1-pyrrolidinyl]-1-cyclopropyl-6-fluoro-1,4-dihydro-8-methoxy-4-oxoquinoline-3-carboxylic acid]
[2]
  MIC: 6 ng/mL (≈ 0.0153 µM)
[3]
  MIC: 0.39 µg/mL (≈ 0.991 µM)
[4]
  MIC: 0.1 µg/mL (≈ 0.254 µM)
[5]
  MIC: 0.05 µg/mL (≈ 0.127 µM)
[6]
  MIC: 0.05 µg/mL (≈ 0.127 µM)
[7]
  MIC: 0.1 µg/mL (≈ 0.254 µM)
[8]
  MIC: 0.2 µg/mL (≈ 0.508 µM)
[9]
  MIC: 0.013 µg/mL (≈ 0.033 µM)
[10]
  MIC: 0.1 µg/mL (≈ 0.254 µM)
[11]
  MIC: 0.013 µg/mL (≈ 0.033 µM)
[12]
  MIC: 0.05 µg/mL (≈ 0.127 µM)
[13]
  MIC: 0.1 µg/mL (≈ 0.254 µM)
[14]
  MIC: ≤ 3 ng/mL

## COc1c(N2C[C@@H](CF)[C@@H](N)C2)c(F)cc2c(=O)c(C(=O)O)cn(C3CC3)c12 [Comp. Ex. 1, 7-[3-(R)-Amino-4-(R)-fluoromethyl-1-pyrrolidinyl]-1-cyclopropyl-6-fluoro-1,4-dihydro-8-methoxy-4-oxoquinoline-3-carboxylic acid, reference compound]
[2]
  MIC: 13 ng/mL (≈ 0.033 µM)
[3]
  MIC: 0.78 µg/mL (≈ 1.98 µM)
[4]
  MIC: 0.1 µg/mL (≈ 0.254 µM)
[5]
  MIC: 0.1 µg/mL (≈ 0.254 µM)
[6]
  MIC: 0.1 µg/mL (≈ 0.254 µM)
[7]
  MIC: 0.2 µg/mL (≈ 0.508 µM)
[8]
  MIC: 0.2 µg/mL (≈ 0.508 µM)
[9]
  MIC: 0.025 µg/mL (≈ 0.0636 µM)
[10]
  MIC: 0.2 µg/mL (≈ 0.508 µM)
[11]
  MIC: 0.013 µg/mL (≈ 0.033 µM)
[12]
  MIC: 0.1 µg/mL (≈ 0.254 µM)
[13]
  MIC: 0.2 µg/mL (≈ 0.508 µM)
[14]
  MIC: ≤ 3 ng/mL

From patent publication US6656952B2, “Cis-substituted fluoromethylpyrrolidine derivative” (Daiichi Pharmaceutical Co., Ltd., priority 1997, dated 2003)
